# Data reported in PubChem BioAssay (NCI).
# Values joined by “and” are separate entries in the source; they are usually repeats but may differ in a detail not shown here. Identical values can stand only once.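 1) Cells in 96-well plates. 2) Compound, 48 h, 5 concentrations. 3) Linear interpolation between surrounding doses. 4) Unreached endpoint = highest concentration. GI50 = concentration required for 50% inhibition of growth. TGI is the concentration that stops growth completely.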
# Assays:
# Test in all cases: NCI-60 cell line screen, 48 h
# SF-268 CNS = test system: SF-268 CNS
# SK-MEL-5 melanoma = test system: SK-MEL-5 melanoma
# UACC-62 melanoma = test system: UACC-62 melanoma
# M14 melanoma = test system: M14 melanoma
# KM12 colon = test system: KM12 colon
# NCI-H460 lung = test system: NCI-H460 lung
# HL-60(TB) leukemia = test system: HL-60(TB) leukemia
# HCC-2998 colon = test system: HCC-2998 colon
# K-562 leukemia = test system: K-562 leukemia
# MALME-3M melanoma = test system: MALME-3M melanoma
SMILES,TGI (SF-268 CNS),TGI (SK-MEL-5 melanoma),TGI (UACC-62 melanoma),TGI (M14 melanoma),TGI (KM12 colon),TGI (NCI-H460 lung),TGI (HL-60(TB) leukemia),TGI (HCC-2998 colon),TGI (K-562 leukemia),TGI (MALME-3M melanoma),GI50 (SK-MEL-5 melanoma) [µM],GI50 (UACC-62 melanoma) [µM],GI50 (M14 melanoma) [µM],GI50 (KM12 colon) [µM],GI50 (NCI-H460 lung) [µM],GI50 (HL-60(TB) leukemia) [µM],GI50 (HCC-2998 colon) [µM],GI50 (K-562 leukemia) [µM],GI50 (MALME-3M melanoma) [µM],GI50 (SF-268 CNS)
Cc1cc(NC(=O)NC(=O)c2ccccc2NC(=O)CN(C)C)ccc1Oc1ncc(Br)cn1,> 100 µM,> 100 µM,> 82.9 µM,> 57.4 µM,> 100 µM,> 95 µM,12.5 µM,6.05 µM,> 57.8 µM,> 100 µM,–,–,–,–,–,–,–,–,–,–
CN(C)C1C(=O)C(C(N)=O)=C(O)C2(O)C(=O)C3=C(O)c4c(O)cccc4C(C)(O)C3CC12.[Cl][Sb]([Cl])[Cl] (stereo not drawn),–,4.36 µM,7.45 µM,16.6 µM,13.2 µM,12.3 µM,9.9 µM,14.1 µM,11.2 µM,4.6 µM,1.78,2.55,3.82,3.7,3.27,4.01,3.57,3.26,1.94,–
C/C(=N\NC(=S)N1CCC1)c1ccccn1,> 100 µM,2.01 µM,7.36 µM,1.84 µM,46.7 µM,6.33 µM,3.57 µM,26.8 µM,> 100 µM,7.65 µM,0.00994,–,0.0229,0.0477,0.07,0.0045,0.0113,0.00393,0.0101,0.00557 µM
O=C([O-])c1ccc([I+]c2ccccc2)cc1,> 100 µM,> 100 µM,> 100 µM,> 100 µM,> 100 µM,> 100 µM,> 100 µM,> 100 µM,> 100 µM,> 100 µM,–,–,–,–,–,–,–,–,–,–
CCOC(=O)C[C@@]12CCCN[C@]1(C)CCc1ccccc12,> 100 µM,> 100 µM,> 100 µM,> 100 µM,> 100 µM,> 100 µM,> 100 µM,> 100 µM,> 100 µM,> 100 µM,–,–,–,–,–,–,–,–,–,–
CC[n+]1c(-c2ccccc2)c2cc(N)ccc2c2ccc(N)cc21,2.44 µM and 11.9 µM and 16.9 µM,2.14 µM and 2.6 µM,2.4 µM and 3.61 µM,16.6 µM and 44.5 µM,4.68 µM and 15 µM and 21.9 µM,12.3 µM and 22.5 µM and 22.1 µM,18 µM and 26.9 µM and 47.6 µM,3.31 µM and 16.5 µM and 19.8 µM,30.1 µM and 50.5 µM and 35.3 µM,2.9 µM and 6.43 µM,0.864,0.578,3.84,1.02,1.21,–,1.22,1.75,0.631,0.281 µM and 0.589 µM and 1.26 µM
COS(=O)c1cc(Cl)cc(Cl)c1OC(=O)CSSCC(=O)Oc1c(Cl)cc(Cl)cc1S(=O)OC (stereo not drawn),44.9 µM,32.4 µM,21.4 µM,46.3 µM,36.2 µM,55.5 µM,52.9 µM,40.3 µM,51.1 µM,42.4 µM,–,–,–,–,–,–,–,–,–,–
O=C1C=CC2(O)OCC3C=C4O[C@@H]5OC6(CCCCC6)O[C@@H]5C4[C@@H]2[C@@H]13 (stereo partly drawn),> 100 µM,> 100 µM,> 100 µM,43.8 µM,> 100 µM,> 100 µM,42.1 µM,> 100 µM,44.8 µM,62.1 µM,–,–,–,–,–,–,–,–,–,–
O=[N+]([O-])/C=C/c1ccc2ccccc2c1,> 35.6 µM,13.3 µM,32.8 µM,> 23.7 µM,3.09 µM,> 23.5 µM,7.8 µM,0.678 µM,9.42 µM,33.9 µM,–,–,–,–,–,–,–,–,–,–
COC(=O)[C@]12CC[C@@H](C)[C@H](C)[C@@H]1C1=CC[C@@H]3[C@@]4(C)C(C=O)=C[C@@](C)(COS(C)(=O)=O)C4=CC[C@@]3(C)[C@]1(C)CC2,0.721 µM,0.333 µM,0.551 µM,0.486 µM,–,0.534 µM,0.835 µM,0.466 µM,1.17 µM,0.34 µM,0.175,0.2,0.213,–,0.226,0.276,0.204,0.308,0.173,0.248 µM
CCN1C(=O)N(CC)C2C1NC(=S)N2/N=C/C=C/c1ccccc1 (stereo not drawn),> 100 µM,11.3 µM,> 100 µM,> 100 µM,> 100 µM,> 100 µM,0.29 µM,> 58.6 µM,> 100 µM,> 100 µM,0.145,0.0439,0.0881,0.0924,0.176,0.0387,0.328,0.0495,3.55,0.32 µM
O=C1Nc2ccc(-c3cccnc3)cc2/C1=C/c1cc(Br)c(O)c(Br)c1,> 25 µM,7.78 µM,9.87 µM,> 21.9 µM,24.8 µM,> 25 µM,> 22.1 µM,> 25 µM,> 25 µM,23.9 µM,3.95,3.54,4.45,6.59,6.97,6.97,8.58,9.07,3.96,7.71 µM
OCc1ccc(-c2ccc(-c3ccc(CO)o3)o2)o1,> 100 µM,> 100 µM,> 100 µM,> 100 µM,> 100 µM,> 100 µM,> 100 µM,> 100 µM,> 100 µM,69.6 µM,> 100,16.7,> 100,> 100,> 100,> 100,> 82,> 100,8.22,> 61.7 µM
C#COc1cccc(Nc2ncnc3cc(NC(=O)[C@@H](C)Cl)ccc23)c1,> 62.5 µM,32.8 µM,> 62.5 µM,> 62.5 µM,> 62.5 µM,> 62.5 µM,8.25 µM,> 62.5 µM,> 62.5 µM,> 62.5 µM,4.09,5.48,3.92,3.25,7.63,2.02,13.9,2.56,20.1,16.9 µM
Nc1c(C(=O)Nc2ccccc2)sc2nc3c(cc12)C(=O)CCC3,> 100 µM,5.7 µM,> 100 µM,> 32.9 µM,> 100 µM,–,> 100 µM,> 100 µM,> 100 µM,> 100 µM,0.249,0.557,0.401,0.323,0.346,0.587,1.2,0.287,4.66,1.02 µM
